Tests used:
[1] = test system: Mice (C57/B6J, 8 weeks old male) fed with high-fat food
Source text: Mice (C57/B6J, 8 weeks old male) were divided into 4 groups (5 animals each), and the first group (DB) was freely fed with ordinary food (Certified Diet “MF” manufactured by Oriental Yeast Co., ltd.). The second group (HFD) was freely fed with high-fat food (High Fat Diet 32, manufactured by CLEA Japan, Inc.), […].
When the mouse was 20 weeks old, the body weight, the liver weight, the serum aspartate aminotransferase (AST), the alanine aminotransferase (ALT), the serum triglyceride (TG), the free fatty acid value (FFA) and the total cholesterol value (T-cho) were measured.

[2] = test system: subjects who had NAFLD in 31 IU/L or more of ALT; conditions: Case IDs 1 to 9 (group affected); at least one week after initiation; glutathione 300 mg per day orally

In the case of `N[C@@H](CCC(=O)N[C@@H](CS)C(=O)NCC(=O)O)C(=O)O` [glutathione], the “serum AST” value ([1]; HFD6 (6 mg/kg/day) and HFD60 (60 mg/kg/day) groups in comparison to the HFD group, 20 weeks old, concentration dependent, FIG. 5A) is reported as “significant decrease”, the “serum ALT” value ([1]; HFD6 (6 mg/kg/day) and HFD60 (60 mg/kg/day) groups in comparison to the HFD group, 20 weeks old, concentration dependent, FIG. 5B) is reported as “significant decrease” and the “serum TG (triglyceride value)” value ([1]; HFD6 (6 mg/kg/day) and HFD60 (60 mg/kg/day) groups in comparison to the HFD group, 20 weeks old, concentration dependent, FIG. 6A) is reported as “significant decrease”. For the same molecule, the “serum FFA (free fatty acid value)” value ([1]; HFD6 (6 mg/kg/day) and HFD60 (60 mg/kg/day) groups in comparison to the HFD group, 20 weeks old, concentration dependent, FIG. 6B) was “significant decrease”, the “serum T-cho (total cholesterol value)” value ([1]; HFD6 (6 mg/kg/day) and HFD60 (60 mg/kg/day) groups in comparison to the HFD group, 20 weeks old, concentration dependent, FIG. 6C) was “significant decrease” and the “consumption amount of feed” value ([1]; all of the groups (DB, HFD, HFD6, HFD60), FIG. 3A) was “no significant difference”. For the same molecule, the “consumption amount of water” value ([1]; all of the groups (DB, HFD, HFD6, HFD60), FIG. 3B) was “no significant difference”, the liver weight ([1]; high-fat food mice, glutathione 6 and 60 mg/kg/day in water, 20 weeks old, FIG. 4A) was “decreased dependently on the concentration” and the “ratio of liver weight/body weight” value ([1]; high-fat food mice, glutathione 6 and 60 mg/kg/day in water, 20 weeks old, FIG. 4B) was “decrease of the body weight ratio was also recognized”. For the same molecule, the “deposition of fat on the liver by high-fat food” value ([1]; high-fat food mice, glutathione 6 and 60 mg/kg/day in water, concluded from liver weight) was “suppressed”, the body weight ([1]; high-fat food mice, glutathione 6 or 60 mg/kg/day in water, FIGS. 1 and 2) was “decrease of the body weight was recognized” and the “improvement of ALT after the administration versus before initiation (0 wk)” value [2] was at least 20%.

Reference: patent publication US11207371B2, “Composition for improving or preventing nonalcoholic fatty liver” (KOHJIN LIFE SCIENCES CO., LTD., priority 2015, dated 2021)
